Data published in patent US20120322699A1, “Method of Preventing Scale Formation During Enhanced Oil Recovery” (Chevron U.S.A. Inc., priority 2011, published 2012).

How the values were obtained:
[1] = Bottle test of scale prevention capacity of metal complexing agents; format: physicochemical
Procedure: Scale prevention capacity of the metal complexing agents were then tested using the following bottle test procedure: • 1. Synthetic field brine was prepared with NaCl and NaHCO3 (constituents of the brine) but CaCl2 and MgCl2 content was temporarily withheld to avoid premature scaling. • 2. Metal complexing agent was added to the brine above in a stoichiometrically required amount and at higher concentrations and the solution was allowed to equilibrate after thorough mixing. • 3. CaCl2 and MgCl2 were added and the brine solutions were equilibrated. • 4. In a preliminary test, the impact of pH alone was evaluated. […] If no scale was observed, step 4 was repeated with addition of Na2CO3.

[2] = Initial screening of complexing agents and scale inhibitors with synthetic brine; format: physicochemical; conditions: for Maximum pH: complexing agents, synthetic brine 1,000 ppm Ca2+/Mg2+, 450 ppm HCO3-
Procedure: Eight different metal complexing agents and five commercial scale inhibitors were tested according to known laboratory methods with a synthetic brine containing 1,000 ppm of divalent cation (Ca^2+/Mg^2+) and 450 ppm of HCO3^−. Among the complexing agents tested, six were organic ligands with carboxylate moieties and two were inorganic phosphates. The five scale inhibitors tested were commercial products supplied by Nalco Chemicals based on phosphonate, acrylate and sulfonate.

[3] = Final bottle tests of formulations at lower agent concentrations with scale inhibitors; format: physicochemical
Procedure: Based on the above results, two commercial scale inhibitors were combined in synthetic brine with the metal complexing agents. The pH of the solutions was raised by addition of 1.0M NaOH to simulate the basic environment during an alkaline flood. The following procedure was used to prepare the aqueous solutions: • 1. Synthetic field brine was prepared by temporarily excluding the HCO3^−. • 2. Scale inhibitor was added and the solution was allowed to equilibrate after thorough mixing. • 3. Metal complexing agent was added to the brine above in concentrations near half of the stoichiometrically required amount and the solution was allowed to equilibrate after thorough mixing. • 4. NaHCO3 was added and the brine solutions were equilibrated. • 5.

[4] = Initial bottle tests with BASF complexing agents without changing the pH; format: physicochemical; conditions: equimolar concentration (7,350 ppm) with the calcium ions, hard brine
Description: The initial bottles tests were designed at the reported calcium binding capacity of the agents without changing the pH.

[5] = at 25° C.; cited from earlier work
[6] = agent 1.1 %, alkali Na2B2O4, pH 9.97
[7] = agent 1.1 %, alkali Na2B2O4, pH 10.10
[8] = agent 1.1 %, alkali Na2B2O4, pH 10.15
[9] = agent 1.1 %, alkali Na2CO3, pH 10.60
[10] = agent 1.1 %, alkali Na2CO3, pH 10.69
[11] = agent 1.1 %, alkali Na2CO3, pH 10.77
[12] = agent 1.5 %, alkali NaOH, pH 10.20
[13] = agent 1.5 %, alkali NaOH, pH 8.80
[14] = agent 0.8 %, alkali Na2B2O4, pH 10.10
[15] = agent 1.5 %, alkali Na2B2O4, pH 10.10
[16] = agent 1.5 %, alkali Na2CO3, pH 10.10

O=C([O-])CN(CC(=O)[O-])CC(=O)[O-].[Na+].[Na+].[Na+] [NTA-Na3, sodium nitrilotriacetate]
Status (next day) ([1]; agent 0.8 %, no alkali added): scale | Status (same day) ([1]; agent 0.8 %, no alkali added): scale | Status (next day) ([1]; agent 1.1 %, no alkali added): scale | Status (same day) ([1]; agent 1.1 %, no alkali added): scale | Status (next day) ([1]; agent 1.5 %, no alkali added): scale | Status (same day) ([1]; agent 1.5 %, no alkali added): scale

CC(=O)ON(CCN(OC(C)=O)OC(C)=O)OC(C)=O.[Na] [EDTA-Na4, sodium ethylenediamine tetraacetate]
Status (next day) [1, 6]: clear | Status (same day) [1, 6]: clear | Status (next day) [1, 7]: clear | Status (same day) [1, 7]: clear | Status (next day) [1, 8]: clear | Status (same day) [1, 8]: clear | Status (next day) [1, 9]: clear | Status (same day) [1, 9]: clear | Status (next day) [1, 10]: clear | Status (same day) [1, 10]: clear | Status (next day) [1, 11]: clear | Status (same day) [1, 11]: clear | pH value up to which effective ([2]; 11,000 ppm in hard field brine (equimolar Ca:EDTA)): ≤ 10.7 | Maximum pH [2]: 10.7

O.O=C([O-])/C=C\C(=O)[O-].[Na+].[Na+] [Sodium maleate, sodium maleate monohydrate]
overall assessment from bottle test results [1]: promising results | Status (next day) [1, 12]: clear | Status (same day) [1, 12]: clear | Maximum pH [2]: 10.2

O=C(O)CN(CCN(CC(=O)O)CC(=O)O)CC(=O)O [EDTA, ethylenediaminetetraacetic acid]
complexing agent concentration when used with scale inhibitor ([3]; in combination with 200 ppm VX9400): 7,500 ppm

O=P([O-])([O-])OP(=O)([O-])[O-].[K+].[K+].[K+].[K+] [Tetrapotassium pyrophosphate]
Status (next day) [1, 13]: scale | Status (same day) [1, 13]: scale

CC(C(=O)O)N(CC(=O)O)CC(=O)O (stereo not shown) [MGDA, methylglycinediacetic acid]
pH value up to which scaling prevented [4]: ≤ 9.9 | complexing agent concentration when used with scale inhibitor ([3]; in combination with 500 ppm VX9400): 5,500 ppm

O=C([O-])CC(O)(CC(=O)[O-])C(=O)[O-].[Na+].[Na+].[Na+] [Sodium citrate, sodium citrate]
overall assessment from bottle test results [1]: not a successful selection | Status (next day) [1, 14]: scale | Status (same day) [1, 14]: clear | Status (next day) [1, 15]: scale | Status (same day) [1, 15]: clear | Status (next day) [1, 16]: scale | Status (same day) [1, 16]: scale

O=P(O)(O)OP(=O)(O)OP(=O)(O)O [Sodium tripolyphosphate]
water solubility [5]: 14.5 g/100 mL | Status (next day) ([1]; agent 1.15 %, no alkali added): scale | Status (same day) ([1]; agent 1.15 %, no alkali added): scale | Status (next day) ([1]; agent 1.5 %, no alkali added): scale | Status (same day) ([1]; agent 1.5 %, no alkali added): scale | Status (next day) ([1]; agent […], no alkali added): scale | Status (same day) ([1]; agent […], no alkali added): scale
